Test systems include SR leukemia; SNB-19 CNS; HT29 colon; SK-OV-3 ovarian; U251 CNS; TK-10 renal; CCRF-CEM leukemia; K-562 leukemia; NCI-H522 lung; 786-0 renal; NCI-H226 lung; UACC-62 melanoma; SN12C renal; SK-MEL-5 melanoma; HOP-62 NSCLC.
What all share (assay): NCI anticancer screen, dose series, 48 h

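96-well plates; 48 h exposure; 5 concentrations. Endpoints by linear interpolation between flanking doses. Not reached: highest tested concentration assigned. TGI: total growth inhibition.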

As for `COc1cc(/C=C(\C#N)C(=O)c2ccccc2)ccc1O`, the TGI with SR leukemia, in the assay with SNB-19 CNS, with HT29 colon, with SK-OV-3 ovarian, with U251 CNS and in the assay on TK-10 renal was > 100 µM each time. Besides, the TGI in the assay on CCRF-CEM leukemia, in the assay on K-562 leukemia, in the assay with NCI-H522 lung, in the assay with 786-0 renal, with NCI-H226 lung and in the assay on UACC-62 melanoma was > 100 µM throughout. The TGI with SN12C renal, with SK-MEL-5 melanoma and with HOP-62 NSCLC was > 100 µM throughout.
On to `CC(=O)OC[C@]1(O)CC[C@@]23CC1C[C@@H]2CCC1C(C)(C)CCC[C@@]13C` (stereo not given in full), for which the TGI is 23.6 µM in the assay on SR leukemia; 27.6 µM in the assay on SNB-19 CNS; 25.7 µM in the assay on HT29 colon; 28.9 µM in the assay on SK-OV-3 ovarian; 27.1 µM in the assay with U251 CNS; 26.2 µM with TK-10 renal. In addition, the TGI in the assay on CCRF-CEM leukemia stood at 25.7 µM; in the assay with K-562 leukemia it was 20.3 µM; in the assay on NCI-H522 lung, 14.7 µM; in the assay with 786-0 renal, 31.6 µM; in the assay with NCI-H226 lung, 32.7 µM; in the assay with UACC-62 melanoma, 26.2 µM. Further, the TGI was 24.7 µM with SN12C renal, 28.2 µM with SK-MEL-5 melanoma and 32.2 µM with HOP-62 NSCLC.
With `O=C1CCC(=O)N1Cc1ccccc1N=[N+]([O-])c1ccccc1CN1C(=O)CCC1=O`, the TGI in the assay on SR leukemia, with SNB-19 CNS, with HT29 colon, in the assay on U251 CNS, in the assay with TK-10 renal and in the assay with CCRF-CEM leukemia was > 100 µM each time. Further, the TGI in the assay with K-562 leukemia, in the assay on NCI-H522 lung, with 786-0 renal, with UACC-62 melanoma, in the assay with SN12C renal and in the assay with SK-MEL-5 melanoma was > 100 µM throughout. In addition, in the assay with HOP-62 NSCLC, the TGI is > 100 µM.
`CN(C(=O)C12C3C4C1C1C4(C(=O)C45C6C7C4C4C5C6C74C)C3C12C)C(C)(C)C` (stereo not given): the TGI in the assay with SR leukemia is > 100 µM; in the assay on SNB-19 CNS, > 100 µM; with HT29 colon, 35.1 µM; in the assay on SK-OV-3 ovarian it was > 100 µM; in the assay with U251 CNS, > 100 µM; with TK-10 renal, > 100 µM. Further, the TGI in the assay on CCRF-CEM leukemia, with K-562 leukemia, with NCI-H522 lung, with 786-0 renal, in the assay with NCI-H226 lung and in the assay on UACC-62 melanoma was > 100 µM in each case. Besides, the results for the TGI in the assay with SN12C renal, in the assay on SK-MEL-5 melanoma and with HOP-62 NSCLC were > 100 µM, 81.7 µM and > 100 µM, respectively.
As to `COc1cccc(NC(=O)/C(CC(=O)CC(c2ccccc2)c2c(O)c3ccccc3oc2=O)=N\NC(C)(C)C)c1OC` (stereo not given), the TGI in the assay on SNB-19 CNS, in the assay with SK-OV-3 ovarian, in the assay with U251 CNS, in the assay with TK-10 renal, in the assay on CCRF-CEM leukemia and in the assay on K-562 leukemia was > 100 µM each time. The TGI in the assay on 786-0 renal, with UACC-62 melanoma, with SK-MEL-5 melanoma and with HOP-62 NSCLC was > 100 µM each time.
As for `COC(=O)N1CCc2c(nc(N(C)CCO)[nH]c2=O)C1`, the TGI in the assay with SR leukemia, in the assay with SNB-19 CNS, in the assay on HT29 colon, in the assay on SK-OV-3 ovarian, in the assay with U251 CNS and in the assay on TK-10 renal was > 100 µM in each case. Further, the TGI with CCRF-CEM leukemia, in the assay on K-562 leukemia, with NCI-H522 lung, with 786-0 renal, in the assay with NCI-H226 lung and with UACC-62 melanoma was > 100 µM each time. The TGI with SN12C renal, with SK-MEL-5 melanoma and in the assay on HOP-62 NSCLC was > 100 µM each time.
As to `Clc1ccc2c(c1)C1C(CO2)C(c2ccccc2)=NN1c1ccccc1` (stereo not given), the TGI was > 100 µM with SNB-19 CNS; > 100 µM in the assay with HT29 colon; > 100 µM in the assay with SK-OV-3 ovarian; > 100 µM in the assay on U251 CNS; > 100 µM in the assay with TK-10 renal; 99.1 µM in the assay on CCRF-CEM leukemia. Besides, the TGI is 93.8 µM with K-562 leukemia, > 100 µM with 786-0 renal and > 100 µM in the assay on HOP-62 NSCLC.
As to `COc1ccc(C(=O)Cc2c(C(=O)c3ccccc3)c3ccccc3n2C(=O)c2ccccc2)cc1`, the TGI in the assay on SR leukemia, with SNB-19 CNS, with HT29 colon, in the assay on U251 CNS, in the assay with TK-10 renal and in the assay with CCRF-CEM leukemia was > 100 µM in each case. Besides, the TGI in the assay with K-562 leukemia is > 100 µM; in the assay on NCI-H522 lung, > 100 µM; in the assay on 786-0 renal it was > 100 µM; in the assay with NCI-H226 lung, > 100 µM; in the assay on UACC-62 melanoma it was > 100 µM; in the assay with SK-MEL-5 melanoma it was 64.3 µM. For the same compound, the TGI in the assay with HOP-62 NSCLC was > 100 µM.

The values above are taken from PubChem BioAssay (NCI).
